According to ChEMBL document CHEMBL5260848, “Recent advancements in the development of bioactive pyrazoline derivatives” (Eur J Med Chem, 2020):
Values after ≈ are worked out from the molar mass of the structure shown.

Columns and labels:
HeLa = test: Cytotoxicity against human HeLa cells assessed as reduction in cell viability; format: functional, cell-based
HepG2 [1] = test: Cytotoxicity against human HepG2 cells assessed as reduction in cell viability; format: functional, cell-based
Aspergillus niger = test: Antifungal activity against Aspergillus niger by agar dilution method; format: functional
Candida albicans = test: Antifungal activity against Candida albicans by agar dilution method; format: functional
MCF7 = test: cells; details: Homo sapiens
A549 = test: Cytotoxicity against human A549 cells assessed as reduction in cell viability; format: functional, cell-based
RAW264.7 [2] = test: Cytotoxicity against mouse RAW264.7 cells relative to control; format: functional
RAW264.7 [3] = test: Antiinflammatory activity in LPS-induced mouse RAW264.7 cells assessed as inhibition of LPS induced NO production; format: functional, cell-based
Rattus norvegicus [4] = test: Antiinflammatory activity in carrageenan induced rat paw edema model assessed inhibition of TNF-alpha level; format: functional, organism-based
Plasmodium falciparum = test: Antimalarial activity against chloroquine-sensitive Plasmodium falciparum 3D7; format: functional, organism-based
Staphylococcus aureus [5] = test: microbe, parasite or virus in culture
Pseudomonas aeruginosa = test: Antibacterial activity against Pseudomonas aeruginosa assessed as inhibition of bacterial growth; format: functional
Escherichia coli [6] = test: Antibacterial activity against Escherichia coli assessed as inhibition of bacterial growth; format: functional
Bacillus subtilis = test: microbe, parasite or virus in culture
[7] = system: Mycobacterium tuberculosis; test: Antimycobacterial activity against Mycobacterium tuberculosis; format: functional
[8] = system: Mycobacterium tuberculosis; test: microbe, parasite or virus in culture; details: 120 h
HepG2 [9] = test: Cytotoxicity against human HepG2 cells assessed as growth inhibition; format: functional, cell-based
Rattus norvegicus [10] = test: Antiinflammatory activity in carrageenan induced rat paw edema model relative to indomethacin; format: functional
Plasmodium berghei = test: Antimalarial activity against Plasmodium berghei infected in mouse assessed as suppression percentage at 48.46 umol/kg administered daily relative to control; format: functional; details: dose 48.46 µmol/kg
DU-145 = test: Cytotoxicity against human DU-145 cells by SRB assay; format: functional
Tubulin (Homo sapiens) = Tubulin (Homo sapiens) (UniProt P68371+Q9H4B7+P0DPH7+P68366+Q13509+Q71U36+P04350+Q3ZCM7+P07437+P68363+Q9BQE3+Q6PEY2+Q13885+Q9BVA1+Q9BUF5); test: Inhibition of tubulin polymerization (unknown origin) by fluorescence assay relative to control; format: protein-complex assay; details: concentration not given here
HepG2 [11] = test: Cytotoxicity against human HepG2 cells by SRB assay; format: functional
Staphylococcus aureus [12] = test: microbe, parasite or virus in culture; remark: listed apart in the source
Escherichia coli [13] = test: microbe, parasite or virus in culture

With COc1cc(C2CC(c3ccc(Cl)cc3)=NN2C(N)=S)cc(OC)c1OC (configuration not stated) the IC50 (HeLa) was 9.37 µM and the IC50 (HepG2 [1]) was 16 µM.

COc1cccc2cc(C3CC(c4cc(Br)ccc4O)=NO3)c3nnnn3c12 (configuration not stated) was tested, and the MIC (Aspergillus niger) was 25 µg/mL (≈ 56.8 µM) and the MIC (Candida albicans) was 25 µg/mL (≈ 56.8 µM).

For CNC(=S)N1N=C(c2nnn(-c3ccc(-n4nnc(C5=NN(C(=S)NC)C(c6ccccc6)C5)c4C)cc3)c2C)CC1c1ccccc1 (configuration not stated), the IC50 (MCF7) was 32.3 µg/mL (≈ 47.8 µM).

With COc1cc(C2CC(c3ccc(Cl)cc3)=NN2C(N)=S)cc(Br)c1O (configuration not stated) the IC50 (A549) was 44.1 µM.

C[C@]12CC[C@H]3[C@@H](CC=C4C[C@@H](O)CC[C@@]43C)[C@@H]1CC[C@@H]2C1=NN(C(N)=S)C(c2cccc(F)c2)C1 (some centres not stated) was tested, and the Activity (RAW264.7 [2]) was >90% and the IC50 (RAW264.7 [3]) was 1.02 µM.

Molecule COc1cc(C2CC(c3ccc(F)cc3)=NN2C(N)=S)cc(OC)c1OC (configuration not stated) has an IC50 (HeLa) of 7.63 µM and an IC50 (HepG2 [1]) of 6.78 µM.

With Cc1ccc(/C=C/C2=NN(c3ccccc3)C(c3ccc(C)s3)C2)s1 (configuration not stated) the IC50 (Rattus norvegicus [4]) was 0.0017 µM.

COc1cc(/C=C/C(=O)CC(=O)/C=C/c2ccc(O)c(OC)c2)ccc1O [CURCUMIN] gave an IC50 (Rattus norvegicus [4]) of 0.0534 µM.

COc1cc(C2CC(c3cc4ccccc4oc3=O)=NN2C(=O)c2ccncc2)cc(OC)c1OC (configuration not stated) was tested, and the IC50 (Plasmodium falciparum) was 9.68 µg/mL (≈ 19.9 µM).

With CC(=O)N1N=C(c2ccc(Br)cc2)CC1c1cc(Cl)ccc1Oc1c([N+](=O)[O-])cc(C(F)(F)F)cc1[N+](=O)[O-] (configuration not stated) the MIC (Staphylococcus aureus [5]) was 3.12 µg/mL (≈ 4.98 µM), the MIC (Pseudomonas aeruginosa) was 0.39 µg/mL (≈ 0.621 µM) and the MIC (Escherichia coli [6]) was 0.39 µg/mL (≈ 0.621 µM). For the same molecule, the MIC (Bacillus subtilis) was 3.12 µg/mL (≈ 4.98 µM).

Work on CC1(C)S[C@@H]2[C@H](NC(=O)Cc3ccccc3)C(=O)N2[C@H]1C(=O)O [PENICILLIN G] yielded an MIC (Staphylococcus aureus [5]) of 0.39 µg/mL (≈ 1.17 µM), an MIC (Pseudomonas aeruginosa) of 3.12 µg/mL (≈ 9.35 µM) and an MIC (Escherichia coli [6]) of 3.12 µg/mL (≈ 9.35 µM). For the same molecule, the MIC (Bacillus subtilis) was 0.39 µg/mL (≈ 1.17 µM).

With CN[C@@H]1[C@H](O[C@H]2[C@H](O[C@H]3[C@H](O)[C@@H](O)[C@H](N=C(N)N)[C@@H](O)[C@@H]3N=C(N)N)O[C@@H](C)[C@]2(O)C=O)O[C@@H](CO)[C@H](O)[C@H]1O [STREPTOMYCIN] the MIC [7] was 6.25 µg/mL (≈ 10.7 µM) and the MIC [8] was 6.25 µg/mL (≈ 10.7 µM).

Work on O=C1N=C(N2N=C(c3cccs3)CC2c2cc(Cl)ccc2Cl)S/C1=N/Nc1ccc(Cl)cc1 (configuration not stated) yielded an IC50 (HepG2 [9]) of 3.54 µM.

NC[C@H]1O[C@H](O[C@H]2[C@H](O)[C@@H](O[C@H]3O[C@H](CO)[C@@H](O)[C@H](N)[C@H]3O)[C@H](N)C[C@@H]2N)[C@H](N)[C@@H](O)[C@@H]1O [BEKANAMYCIN] gave an MIC (Staphylococcus aureus [5]) of 1.56 µg/mL (≈ 3.23 µM), an MIC (Pseudomonas aeruginosa) of 1.56 µg/mL (≈ 3.23 µM) and an MIC (Escherichia coli [6]) of 1.56 µg/mL (≈ 3.23 µM). The MIC (Bacillus subtilis) was 1.56 µg/mL (≈ 3.23 µM).

Cc1ccc(/C=C/C2=NN(C(N)=O)C(c3ccc(C)s3)C2)s1 (configuration not stated) was tested, and the Activity (Rattus norvegicus [10]) was 103%.

Work on CCC(=O)N1N=C(c2ccccc2)CC1c1cn(-c2ccccc2)nc1-c1ccc(C)cc1 (configuration not stated) yielded an Activity (Plasmodium berghei) of 45.52%.

COc1cc(C2CC(c3ccc(Br)cc3)=NN2C(N)=S)cc(Br)c1O (configuration not stated) was tested, and the IC50 (A549) was 51 µM.

In the case of COc1ccc(/C=C/C(=O)c2cc(OC)c(OC)c(OC)c2)cc1OCc1cn(Cc2ccc(N)cc2)nn1, the GI50 (DU-145) is reported as 1.5 µM and the inhibition (Tubulin (Homo sapiens)) is reported as 36%.

With COc1ccc(C2CC(c3cc(OC)c(OC)c(OC)c3)=NN2C(C)=O)cc1OCc1cn(Cc2ccc(F)cc2)nn1 (configuration not stated) the GI50 (HepG2 [11]) was 6.7 µM.

COc1ccc(N2N=C(/C=C/c3ccc(C)o3)CC2c2ccc(C)o2)cc1 (configuration not stated) gave an Activity (Rattus norvegicus [10]) of 104%.

Molecule COC(=O)C1N=NN(CC(=O)N2N=C(c3ccccc3)CC2c2cccs2)C1C(=O)OC (configuration not stated) has an MIC (Staphylococcus aureus [12]) of 3.9 µg/mL (≈ 8.56 µM) and an MIC (Escherichia coli [13]) of 3.9 µg/mL (≈ 8.56 µM).
